Measurements: publication PMC10652611 (Cell & Bioscience, 2023)
Values belong to the molecule of their own block, whether it stands above or below them.

What was measured:
[1] = biological target: T1, NK2 (Homo sapiens, UniProt P21452); assay: NanoBiT cytosolic Ca^2+ response, NK2; assay type: cell-based; settings: HEK293 cells, NK2, Calmodulin-SmBiT/LgBiT-MYLK2S, luminescence
T1 construct: expressed in transfected cells; host or cells: HEK293
T1 sequence (P21452 1-398): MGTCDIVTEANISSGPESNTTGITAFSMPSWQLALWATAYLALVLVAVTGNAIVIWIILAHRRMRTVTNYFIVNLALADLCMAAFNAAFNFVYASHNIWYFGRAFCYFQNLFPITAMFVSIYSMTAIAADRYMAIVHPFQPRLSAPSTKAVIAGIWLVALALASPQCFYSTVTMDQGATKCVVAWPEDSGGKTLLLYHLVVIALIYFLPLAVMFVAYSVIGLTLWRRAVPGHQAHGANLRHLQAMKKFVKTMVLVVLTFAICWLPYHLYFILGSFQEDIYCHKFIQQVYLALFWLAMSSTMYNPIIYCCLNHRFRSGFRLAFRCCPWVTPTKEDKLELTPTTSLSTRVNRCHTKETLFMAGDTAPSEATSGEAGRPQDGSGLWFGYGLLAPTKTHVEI
Protocol: NKs have been extensively studied, especially with respect to neuropeptide-stimulated Ca^2+ responses. Recently, we developed a real-time calcium assay based on NanoBiT and the Ca^2+-dependent interaction of calmodulin and its target proteins to analyze NK-mediated cellular responses. First, neuropeptide-stimulated luciferase activation was measured in cells expressing NKs and calcium probes to determine the suitability of our assay method. […] Next, the activation efficiency of receptors by each peptide was investigated on Ca^2+ responses based on NanoBiT assay.
NanoLuc Binary Technology (NanoBiT) was utilized to investigate protein–protein interaction. HEK293 cells were seeded in a 96-well white plate at a density of 2 × 10^4 cells per well. The following day, cells were transfected with 50 ng of each plasmid containing SmBiT- or LgBiT- tagged genes using 0.2 µl Lipofectamine 2000 (Invitrogen, Carlsbad, CA, USA). […] Baseline luminescence was measure for 10 min using a SpectraMax L plate reader (Molecular Devices, San Jose, CA, USA). After stimulation with ligands, the luminescence signal was continuously measured for 1 h.
Cytosolic Ca^2+ changes were detected using a NanoBiT system as described previously. […]

[2] = biological target: T2, NK1 (Homo sapiens, UniProt P25103); assay: NanoBiT β-arrestin1 recruitment to NK1 (NK1-SmBiT/β-arr1-LgBiT); assay type: cell-based
T2 construct: expressed in transfected cells; host or cells: HEK293
Protocol: (§1) Ligand-stimulated β-arrestin recruitment to receptors was also examined using the NanoBiT system. The NanoBiT system was used to create construct combinations of receptors and β-arrestin, which were tagged with either SmBiT or LgBiT at N- or C-terminal. These constructs were then expressed in HEK293 cells.
(§2) NanoLuc Binary Technology (NanoBiT) was utilized to investigate protein–protein interaction. HEK293 cells were seeded in a 96-well white plate at a density of 2 × 10^4 cells per well. The following day, cells were transfected with 50 ng of each plasmid containing SmBiT- or LgBiT- tagged genes using 0.2 µl Lipofectamine 2000 (Invitrogen, Carlsbad, CA, USA). To investigate the effect of one receptor on another receptor in β-arrestin recruitment, 100 ng of un-tagged receptor was co-transfected with 50 ng of each of NanoBiT-tagged plasmid and mixed with 0.4 µl Lipofectamine 2000. At 24 h after transfection, the medium was changed to 100 µl of Opti-MEM and the plate was stabilized at room temperature for 10 min before adding NanoBiT substrate. If an inhibitor was used, it was pre-incubated at 37 ℃ for 20 min and at room temperature for 10 min before substrate addition. Baseline luminescence was measure for 10 min using a SpectraMax L plate reader (Molecular Devices, San Jose, CA, USA). After stimulation with ligands, the luminescence signal was continuously measured for 1 h.

[3] = tested on: NK2; assay: NanoBiT β-arrestin1 recruitment to NK2 (NK2-LgBiT/β-arr1-SmBiT); assay type: cell-based; settings: for effect of aprepitant on NKA-stimulated β-arrestin1 recruitment: 10 nM NKA
Protocol: as §1, §2

[4] = tested on: human colorectal cancer cell DLD-1; settings: cited from earlier work
Excerpt: Although some studies have reported that NK1 and NK2 are expressed in some cancers, the role of NK2 in cancer remains controversial.

[5] = cited from earlier work
[6] = biological target: Neurokinin-1 receptor, C-terminal SmBiT- or LgBiT-tagged (UniProt P25103 1-407); assay: cell-based or functional assay
Chain of Neurokinin-1 receptor, C-terminal SmBiT- or LgBiT-tagged (P25103 whole entry): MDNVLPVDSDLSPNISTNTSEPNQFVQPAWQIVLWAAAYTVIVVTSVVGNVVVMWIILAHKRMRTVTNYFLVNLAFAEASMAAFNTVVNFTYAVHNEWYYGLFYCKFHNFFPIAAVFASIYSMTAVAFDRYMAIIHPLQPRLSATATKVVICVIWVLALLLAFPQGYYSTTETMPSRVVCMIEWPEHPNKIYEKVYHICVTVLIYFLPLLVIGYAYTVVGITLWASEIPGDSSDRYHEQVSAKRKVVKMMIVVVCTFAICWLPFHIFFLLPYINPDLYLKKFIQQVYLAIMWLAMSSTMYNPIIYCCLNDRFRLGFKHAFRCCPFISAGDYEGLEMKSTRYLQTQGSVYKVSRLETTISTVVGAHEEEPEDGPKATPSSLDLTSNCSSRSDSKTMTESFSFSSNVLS

T2 sequence (P25103 whole entry): as above

EC50 [1]: 0.24 nM
Molecule: CSCC[C@H](NC(=O)[C@H](CC(C)C)NC(=O)CNC(=O)[C@@H](NC(=O)[C@H](Cc1ccccc1)NC(=O)[C@H](Cc1ccccc1)NC(=O)[C@H](CC(=O)O)NC(=O)[C@H](Cc1c[nH]cn1)NC(=O)[C@H](CCSC)NC(=O)[C@@H](N)CC(=O)O)C(C)C)C(N)=O [NKB, neurokinin B]

effect of aprepitant on SP-stimulated β-arrestin1 recruitment ([2]; NK1-SmBiT/β-arr1-LgBiT, 1 μM aprepitant 30 min, 1 μM SP): completely inhibited | effect of aprepitant on NKA-stimulated β-arrestin1 recruitment ([2]; NK1-SmBiT/β-arr1-LgBiT, aprepitant 30 min, 10 nM NKA): inhibited
Molecule: C[C@@H](O[C@H]1OCCN(Cc2n[nH]c(=O)[nH]2)[C@H]1c1ccc(F)cc1)c1cc(C(F)(F)F)cc(C(F)(F)F)c1 [aprepitant]
SP-stimulated luciferase activities in the presence of aprepitant and intact NK2 ([2]; NK1-SmBiT/β-arr1-LgBiT + intact NK2, 1 μM aprepitant 30 min, 1 μM SP): slightly increased by SP even in the presence of the inhibitor | NKA-stimulated luciferase activities in the presence of aprepitant and intact NK2 ([2]; NK1-SmBiT/β-arr1-LgBiT + intact NK2, aprepitant 30 min, 10 nM NKA): slightly increased by NKA in the presence of aprepitant | effect of aprepitant on SP-stimulated NK2/β-arrestin1 interaction ([3]; NK2-LgBiT/β-arr1-SmBiT + intact NK1, 10 nM SP, aprepitant): inhibited luciferase activities | effect of aprepitant on NKA-stimulated β-arrestin1 recruitment ([3]; NK2-LgBiT/β-arr1-SmBiT + intact NK1, aprepitant 30 min): not downregulated | effect of aprepitant on SP-stimulated β-arrestin1 recruitment ([3]; NK2-LgBiT/β-arr1-SmBiT, 1 μM aprepitant 30 min, 1 μM SP): not affected | effect of aprepitant on NKA-stimulated β-arrestin1 recruitment ([3]; NK2-LgBiT/β-arr1-SmBiT, aprepitant 30 min): not influenced | effect on AKT/mTOR and Wnt/β-catenin signaling pathways [4]: suppression of AKT/mTOR and Wnt/β-catenin signaling pathways | antitumor activity [5]: antitumor activities through promoting apoptotic mechanisms

EC50 of SP for recruitment of β-arrestin1-SmBiT to NK2-LgBiT (NanoBiT luciferase) with intact NK1 co-expressed [6]: 164 nM
B1: Neurokinin-2 receptor, C-terminal SmBiT- or LgBiT-tagged (receptor, UniProt P21452 1-398, looked up)
chain: T1 sequence (P21452 1-398)
